Where a name gives a salt, the structure may show the parent alone.

For assay [1], the system named is ACE2, TMPRSS2, CTSL, and FURIN mRNA in Calu-3 lung epithelial cells. The assay is described as follows: RT-PCR of basal and CHI3L1 regulated expression in Calu-3 cells transfected with CHI3L1 cDNA, with flavopiridol. The format is cell-based, human. Conditions: 24 hours. As for the experimental part:
After transfection of the cells with empty vector (pcDNA) or full length CHI3L1 cDNA, the Calu-3 cells were incubated with flavopiridol (25 nM) or its vehicle control for 24 hours. Levels of mRNA encoding ACE2 (top left), TMPRSS2 (top right), CTSL (bottom left), and FURIN (bottom right) were assessed via RT-PCR. *p<0.05; **p<0.01 (Student's t-test).
(§1) Total cellular RNA was obtained using TRIzol reagent (ThermoFisher Scientific) followed by RNA extraction using RNeasy Mini Kit (Qiagen, Germantown, Md.) according to the manufacturer's instructions. mRNA was measured and used for real time (RT)-PCR as described previously.^55,56 The primer sequences used in these studies are summarized in Table 1. Ct values of the test genes were normalized to the internal housekeeping gene β-actin.
The next study assessed whether the inhibition of CHI3L1 phosphorylation wound result in similar effects observed with CHI3L1 inhibitors on the levels of mRNA encoding ACE2 and spike activating proteases (SAPs), namely FURIN, TMPRSS2, and CTSL, in Calu-3 cells (described in Example 1).

Assay [2] concerns serine phosphorylation of CHI3L1 in U87 cells. The experiment in a line: Co-IP/Immunoblot of CHI3L1 phosphorylation in U87 cells. The assay is classed as cell-based. Conditions: flavopiridol 50 nM unless otherwise indicated, time-dependent and dose-dependent. As for the experimental part:
U87 cells that endogenously express all components of chitosome were subjected to Co-IP/Immunoblot assays after Pan-CDK inhibitor flavopiridol treatment. Flavopiridol was used at 50 nM unless otherwise indicated. Hr, hours.
(In general: Immunoblotting shows a protein as a band on a membrane.)

Assay [3] deals with CDK1 (Homo sapiens, UniProt P06493). Conditions: cited from earlier work.
CDK1, sequence (P06493 whole entry, species assumed): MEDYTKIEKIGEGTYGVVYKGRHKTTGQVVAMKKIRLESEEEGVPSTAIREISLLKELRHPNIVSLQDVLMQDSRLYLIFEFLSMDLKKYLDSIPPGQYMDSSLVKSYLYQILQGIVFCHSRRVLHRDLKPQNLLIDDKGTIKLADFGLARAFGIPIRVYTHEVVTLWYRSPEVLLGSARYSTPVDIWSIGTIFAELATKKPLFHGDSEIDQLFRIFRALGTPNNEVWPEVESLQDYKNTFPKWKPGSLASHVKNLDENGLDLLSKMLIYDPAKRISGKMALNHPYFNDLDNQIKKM
CDK1, sequence (P14635 whole entry partner, species assumed): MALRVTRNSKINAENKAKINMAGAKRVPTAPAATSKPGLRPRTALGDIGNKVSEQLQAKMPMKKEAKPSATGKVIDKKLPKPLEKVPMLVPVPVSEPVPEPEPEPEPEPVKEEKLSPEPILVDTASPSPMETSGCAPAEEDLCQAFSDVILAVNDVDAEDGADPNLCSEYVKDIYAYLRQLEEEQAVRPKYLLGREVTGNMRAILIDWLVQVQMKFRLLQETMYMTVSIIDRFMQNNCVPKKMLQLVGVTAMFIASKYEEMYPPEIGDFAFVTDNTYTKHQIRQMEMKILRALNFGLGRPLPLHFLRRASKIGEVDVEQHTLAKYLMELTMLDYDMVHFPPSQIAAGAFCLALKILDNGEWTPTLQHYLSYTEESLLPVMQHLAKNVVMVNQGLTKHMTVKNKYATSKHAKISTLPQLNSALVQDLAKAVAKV
Assay [4] has as its target CDK2 (Homo sapiens, UniProt P24941). Conditions: cited from earlier work.
Assay [5] deals with CDK4 (Homo sapiens, UniProt P11802). Conditions: cited from earlier work.
CDK4, sequence (P11802 whole entry, species assumed): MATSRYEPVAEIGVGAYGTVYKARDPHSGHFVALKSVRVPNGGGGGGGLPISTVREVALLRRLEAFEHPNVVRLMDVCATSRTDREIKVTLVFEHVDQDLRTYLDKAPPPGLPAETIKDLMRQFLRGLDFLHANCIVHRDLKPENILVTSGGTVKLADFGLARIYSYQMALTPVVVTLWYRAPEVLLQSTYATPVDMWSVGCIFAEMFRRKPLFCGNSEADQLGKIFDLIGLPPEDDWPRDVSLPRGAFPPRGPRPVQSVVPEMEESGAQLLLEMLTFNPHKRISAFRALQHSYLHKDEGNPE
CDK4, sequence (P24385 whole entry partner, species assumed): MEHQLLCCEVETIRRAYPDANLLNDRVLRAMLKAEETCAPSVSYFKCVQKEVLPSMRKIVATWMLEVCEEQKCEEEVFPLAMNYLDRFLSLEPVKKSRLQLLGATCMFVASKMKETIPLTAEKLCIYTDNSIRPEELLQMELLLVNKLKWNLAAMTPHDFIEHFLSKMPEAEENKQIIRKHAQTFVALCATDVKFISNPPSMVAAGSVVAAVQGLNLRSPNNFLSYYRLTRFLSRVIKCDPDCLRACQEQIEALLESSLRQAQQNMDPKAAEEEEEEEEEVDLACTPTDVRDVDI
For assay [6], the target named is CDK6 (Homo sapiens, UniProt Q00534). More on the design: key to the marks not given beside the values. Conditions: cited from earlier work.
CDK6, sequence (Q00534 whole entry, canonical isoform): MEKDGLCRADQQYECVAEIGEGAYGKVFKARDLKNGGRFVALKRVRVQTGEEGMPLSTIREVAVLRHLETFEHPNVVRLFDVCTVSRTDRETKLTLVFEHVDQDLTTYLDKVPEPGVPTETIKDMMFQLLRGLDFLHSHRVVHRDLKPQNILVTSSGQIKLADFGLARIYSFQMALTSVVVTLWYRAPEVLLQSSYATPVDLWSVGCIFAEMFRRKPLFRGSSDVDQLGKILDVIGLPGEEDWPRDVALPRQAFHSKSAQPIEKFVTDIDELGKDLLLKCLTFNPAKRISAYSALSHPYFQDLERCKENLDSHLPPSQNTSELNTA
Assay [7] has as its target CDK7 (Homo sapiens, UniProt P50613). Further details: key: + is used to indicate the potency of the inhibitor; ++++ > +++ > ++ > +; + is used to indicate the potency of the inhibitor; ++++ > +++ > ++ > +; + is used to indicate the potency of the inhibitor; ++++ > +++ > ++ > +; + is used to indicate the potency of the inhibitor; ++++ > +++ > ++ > +; ◯ refers to compounds with inhibitory effects on the related isoform, but without specific value. Conditions: cited from earlier work.

Assay [8] has as its system ACE2, TMPRSS2, and CTSL mRNA in A549 cells. The assay is described as follows: qRT-PCR of mRNA levels in A549 cells incubated with rhCHI3L1. The format is cell-based, human. Conditions: 24 hr. As for the experimental part: as §1
In the first study, A549 cells were incubated with rhCHI3L1 from a commercial source (R&D Inc.) and rhCHI3L1 generated at Brown University (Brown). The cells were incubated for 24 hr with stimulation of rhCHI3L1 (500 ng/mL) at 37° C. mRNA was then extracted and the levels of mRNA for ACE2 and CTSL were evaluated by real time qRT-PCR and compared to vehicle controls. Levels were expressed in relationship to GAPDH controls.
In the next study, A549 cells were incubated with 0, 250 ng/mL, or 500 ng/mL of rhCHI3L1 for 24 hr with stimulation of rhCHI3L1 at 37° C. mRNA was then extracted and the levels of mRNA encoding ACE2, TMPRSS2, and CTSL were assessed via qRT-PCR.
On the technique in general: Real-time PCR tracks product formation cycle by cycle.

The subject of assay [9] is ACE2, TMPRSS2, and CTSL mRNA in normal human small airway epithelial cells (HSAEC). The assay is described as follows: qRT-PCR of mRNA levels in HSAEC incubated with rhCHI3L1. The assay is classed as cell-based. Conditions: rhCHI3L1 500 ng/mL, 24 hours. On the procedure:
as §1
In the present study, normal HSAEC were incubated with 0, 100 ng/mL, or 500 ng/mL of rhCHI3L1 for 24 hours at 37° C. The levels of mRNA encoding ACE2, TMPRSS2, and CTSL were assessed via qRT-PCR and expressed in relationship to GAPDH controls.

Assay [10] concerns ACE2, FURIN, TMPRSS2, and CTSL mRNA in Calu-3 lung epithelial cells. The experiment in a line: RT-PCR of basal and rhCHI3L1 regulated expression in Calu-3 cells with FRG or KSM. The format is cell-based, human. Conditions: Calu-3 cells, rhCHI3L1 250 ng/mL, 24 hours. On the procedure: Calu-3 cells were incubated with vehicle or rhCHI3L1 for 24 hours in the presence of KSM (250 ng/mL) or its vehicle control (PBS). Levels of mRNA encoding ACE2 (top left), FURIN (top right), TMPRSS2 (bottom left), and CTSL (bottom right) were assessed via RT-PCR. KSM diminished the levels of basal ACE2 expression and potently ameliorated the ability of rhCHI3L1 to stimulate ACE2 mRNA accumulation.
as §1
Calu-3 cells were incubated with vehicle or 250 ng/mL rhCHI3L1 for 24 hours in the presence of 250 ng/mL FRG or its isotype control (isotype) at 37° C. Levels of mRNA encoding ACE2, FURIN, TMPRSS2, and CTSL were assessed via RT-PCR.
Kasugamycin (KSM) is an inhibitor of CHI3L1 and chitinase 1. The present study assessed the effects of KSM on the levels of mRNA encoding ACE2, FURIN, TMPRSS2, and CTSL in Calu-3 cells.

Assay [11] has as its system spike protein (S)-containing pseudovirus (D614 and G614 variants). The assay is classed as cell-based. Conditions: Calu-3 cells, rCHI3L1 24 hours before pseudovirus.
In assay [12] the target is CDK3 (Homo sapiens, UniProt Q00526). Conditions: cited from earlier work.
The target in assay [13] is CDK8 (Homo sapiens, UniProt P49336). Further details: key: + is used to indicate the potency of the inhibitor; ++++ > +++ > ++ > +; + is used to indicate the potency of the inhibitor; ++++ > +++ > ++ > +; + is used to indicate the potency of the inhibitor; ++++ > +++ > ++ > +; + is used to indicate the potency of the inhibitor; ++++ > +++ > ++ > +; ◯ refers to compounds with inhibitory effects on the related isoform, but without specific value. Conditions: cited from earlier work.
CDK8, sequence (P24863 whole entry, canonical isoform): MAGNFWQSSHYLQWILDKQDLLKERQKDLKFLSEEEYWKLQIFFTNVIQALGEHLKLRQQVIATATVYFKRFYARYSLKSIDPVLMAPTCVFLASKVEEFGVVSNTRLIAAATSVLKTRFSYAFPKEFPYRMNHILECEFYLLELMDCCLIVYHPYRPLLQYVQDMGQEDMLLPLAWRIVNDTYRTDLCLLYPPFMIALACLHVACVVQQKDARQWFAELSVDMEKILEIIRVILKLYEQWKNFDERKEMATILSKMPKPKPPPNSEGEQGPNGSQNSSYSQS
CDK8, sequence (P49336 whole entry, canonical isoform): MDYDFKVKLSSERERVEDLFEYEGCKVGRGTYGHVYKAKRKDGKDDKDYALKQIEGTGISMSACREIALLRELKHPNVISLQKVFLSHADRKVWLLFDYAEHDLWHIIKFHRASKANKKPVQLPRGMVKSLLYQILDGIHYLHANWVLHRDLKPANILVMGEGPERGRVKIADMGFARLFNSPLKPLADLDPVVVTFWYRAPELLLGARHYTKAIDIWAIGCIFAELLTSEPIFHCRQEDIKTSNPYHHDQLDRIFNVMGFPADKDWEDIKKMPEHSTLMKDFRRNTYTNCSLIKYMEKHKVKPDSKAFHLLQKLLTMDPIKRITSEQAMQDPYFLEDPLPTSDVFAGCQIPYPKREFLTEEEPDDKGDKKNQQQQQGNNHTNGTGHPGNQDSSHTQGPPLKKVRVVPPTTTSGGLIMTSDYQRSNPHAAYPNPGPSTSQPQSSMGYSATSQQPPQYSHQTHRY

The target of assay [14] is CDK9 (Homo sapiens, UniProt P50750). More on the design: key: + is used to indicate the potency of the inhibitor; ++++ > +++ > ++ > +; + is used to indicate the potency of the inhibitor; ++++ > +++ > ++ > +; + is used to indicate the potency of the inhibitor; ++++ > +++ > ++ > +; + is used to indicate the potency of the inhibitor; ++++ > +++ > ++ > +; ◯ refers to compounds with inhibitory effects on the related isoform, but without specific value. Conditions: cited from earlier work.
CDK9, sequence (O60563 whole entry, canonical isoform): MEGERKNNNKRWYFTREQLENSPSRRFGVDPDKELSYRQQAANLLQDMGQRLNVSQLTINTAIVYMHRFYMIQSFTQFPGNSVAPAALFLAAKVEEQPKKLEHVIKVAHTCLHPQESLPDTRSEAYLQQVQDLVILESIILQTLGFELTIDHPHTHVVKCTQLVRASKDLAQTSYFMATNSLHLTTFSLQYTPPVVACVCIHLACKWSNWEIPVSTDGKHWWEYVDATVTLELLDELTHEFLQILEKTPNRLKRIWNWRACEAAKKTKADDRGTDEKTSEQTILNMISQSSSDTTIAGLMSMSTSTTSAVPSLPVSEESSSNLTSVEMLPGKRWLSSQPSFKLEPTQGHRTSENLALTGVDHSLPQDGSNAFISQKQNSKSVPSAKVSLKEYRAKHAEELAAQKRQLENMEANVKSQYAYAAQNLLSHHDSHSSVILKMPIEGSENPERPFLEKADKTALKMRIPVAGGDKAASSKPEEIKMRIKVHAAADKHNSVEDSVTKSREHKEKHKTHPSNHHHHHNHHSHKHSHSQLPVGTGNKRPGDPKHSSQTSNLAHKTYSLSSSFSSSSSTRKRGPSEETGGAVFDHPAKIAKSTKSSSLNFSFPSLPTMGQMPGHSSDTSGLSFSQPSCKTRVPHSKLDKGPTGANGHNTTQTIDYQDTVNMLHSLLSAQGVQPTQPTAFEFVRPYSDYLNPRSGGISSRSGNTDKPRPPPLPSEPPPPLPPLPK
CDK9, sequence (P50750 whole entry, canonical isoform): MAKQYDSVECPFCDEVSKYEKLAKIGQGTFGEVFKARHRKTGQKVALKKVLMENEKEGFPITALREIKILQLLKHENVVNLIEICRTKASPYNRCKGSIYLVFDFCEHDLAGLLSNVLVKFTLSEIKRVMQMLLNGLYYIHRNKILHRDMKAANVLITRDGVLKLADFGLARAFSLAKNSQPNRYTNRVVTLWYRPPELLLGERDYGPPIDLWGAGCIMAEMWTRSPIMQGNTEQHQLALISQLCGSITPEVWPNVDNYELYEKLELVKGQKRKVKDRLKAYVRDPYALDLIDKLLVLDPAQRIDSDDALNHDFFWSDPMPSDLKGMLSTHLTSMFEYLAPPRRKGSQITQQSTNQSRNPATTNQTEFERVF

The mark [15] stands for this setting: Calu-3 cells, pcDNA or CHI3L1 cDNA, flavopiridol 25 nM.

CDK7, sequence (P51946 whole entry, canonical isoform): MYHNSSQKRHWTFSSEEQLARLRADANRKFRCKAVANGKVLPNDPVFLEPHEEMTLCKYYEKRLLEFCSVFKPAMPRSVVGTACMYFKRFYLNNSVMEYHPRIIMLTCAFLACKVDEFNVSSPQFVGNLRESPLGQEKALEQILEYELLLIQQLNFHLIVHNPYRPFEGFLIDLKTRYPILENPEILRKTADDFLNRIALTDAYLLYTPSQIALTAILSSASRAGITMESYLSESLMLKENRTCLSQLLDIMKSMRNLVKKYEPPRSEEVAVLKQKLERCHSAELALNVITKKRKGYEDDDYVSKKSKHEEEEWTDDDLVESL
CDK7, sequence (P50613 whole entry, canonical isoform): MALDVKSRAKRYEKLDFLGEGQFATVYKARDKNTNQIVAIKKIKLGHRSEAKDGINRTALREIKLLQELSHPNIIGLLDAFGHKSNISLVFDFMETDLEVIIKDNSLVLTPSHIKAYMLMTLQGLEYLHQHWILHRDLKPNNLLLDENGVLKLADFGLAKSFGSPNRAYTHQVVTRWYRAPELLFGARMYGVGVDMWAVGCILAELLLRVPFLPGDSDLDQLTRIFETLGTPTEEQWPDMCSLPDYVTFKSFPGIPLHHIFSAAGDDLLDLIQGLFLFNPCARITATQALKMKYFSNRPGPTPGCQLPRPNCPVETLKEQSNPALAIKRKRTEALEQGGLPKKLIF
CDK7, sequence (P51948 whole entry, further chain, canonical isoform): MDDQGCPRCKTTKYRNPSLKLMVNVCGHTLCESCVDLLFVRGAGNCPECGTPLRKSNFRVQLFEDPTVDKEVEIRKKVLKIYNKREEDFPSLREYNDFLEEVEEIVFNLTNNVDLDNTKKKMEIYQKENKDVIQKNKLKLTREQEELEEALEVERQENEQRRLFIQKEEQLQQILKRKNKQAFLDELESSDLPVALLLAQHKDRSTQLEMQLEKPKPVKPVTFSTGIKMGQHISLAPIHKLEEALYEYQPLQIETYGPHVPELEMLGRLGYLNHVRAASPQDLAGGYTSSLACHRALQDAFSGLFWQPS

For `CN1CC[C@H](c2c(O)cc(O)c3c(=O)cc(-c4ccccc4Cl)oc23)[C@H](O)C1` [Flavopiridol], the “ability of CHI3L1 to stimulate ACE2 mRNA accumulation” value in [1] (Calu-3 cells transfected with full length CHI3L1 cDNA, flavopiridol 25 nM) is listed as “potently inhibited”. Further, the “levels of basal ACE2 expression” value in assay [1] (Calu-3 cells, empty vector (pcDNA), flavopiridol 25 nM vs vehicle) is “diminished”. For the same compound, in assay [1] (setting [15]), the “basal and CHI3L1-stimulated expression of CTSL” value is “potently decreased”; the “basal and CHI3L1-stimulated expression of FURIN” value is “potently decreased”; the “basal and CHI3L1-stimulated expression of TMPRSS2” value is listed as “potently decreased”. Also, the “serine phosphorylation of CHI3L1” value in [2] was “blocked”. Also, in [3], the “Inhibitory potency CDK1” value is listed as “+++”. For the same compound, the “Inhibitory potency CDK2” value in assay [4] is “+++”. The “Inhibitory potency CDK4” value in assay [5] is recorded as “+++”. Further, the “Inhibitory potency CDK6” value in [6] is “++”. For the same compound, the “Inhibitory potency CDK7” value in assay [7] is given as “+”.
Turning to “rhCHI3L1: recombinant human CHI3L1 from a commercial source (R&D Inc.) or generated at Brown University”, in [8] (rhCHI3L1 0, 250 or 500 ng/mL), the “levels of mRNA encoding ACE2” value is listed as “significantly upregulated”, the “levels of mRNA encoding CTSL” value is reported as “significantly upregulated” and the “levels of mRNA encoding TMPRSS2” value is given as “significantly upregulated”. Further, in assay [8] (rhCHI3L1 500 ng/mL, vs vehicle), the “levels of mRNA encoding ACE2” value is on record as “significantly upregulated” and the “levels of mRNA encoding cathepsin L (CTSL)” value is given as “significantly upregulated”. In [9], the “levels of mRNA encoding ACE2” value is given as “significantly upregulated”, the “levels of mRNA encoding CTSL” value was “significantly upregulated” and the “levels of mRNA encoding TMPRSS2” value is “significantly upregulated”. In addition, in assay [10], the “levels of mRNA encoding ACE2” value was “significantly upregulated”, the “levels of mRNA encoding CTSL” value is reported as “significantly upregulated”, the “levels of mRNA encoding FURIN” value is given as “significantly upregulated” and the “levels of mRNA encoding TMPRSS2” value is given as “significantly upregulated”. Also, the “cellular integration of S proteins (GFP expression)” value in assay [11] is given as “stimulated”.
Consider `CN1CC[C@H](c2c(O)cc(O)c3c(=O)cc(-c4ccccc4Cl)oc23)[C@H](O)C1` [Flavopiridol HCl, Flavopiridol Hydrochloride], for which, in assay [3], the “Inhibitory potency CDK1” value was “+++”. In addition, the “Inhibitory potency CDK2” value in assay [4] was “+++”. Moreover, the “Inhibitory potency CDK3” value in assay [12] was “+”. The “Inhibitory potency CDK4” value in assay [5] is on record as “+++”. Moreover, the “Inhibitory potency CDK6” value in assay [6] is listed as “+++”. The “Inhibitory potency CDK7” value in assay [7] is “+”.
On to `CC(C)c1c2cc(-c3ccnc(NC4CCC(NC5CCOCC5)CC4)n3)ccc2nn1C` (stereo not drawn) [LY2857785], for which the “Inhibitory potency CDK7” value in assay [7] is recorded as “+”. The “Inhibitory potency CDK8” value in [13] is recorded as “+++”. Also, the “Inhibitory potency CDK9” value in [14] was “+++”.

The values are drawn from patent US20230183323A1 (BROWN UNIVERSITY, priority 2020, published 2023).
